# Biological target: T1, recombinant alpha-glucosidase I (human full-length glucosidase I, Glu 1) (Homo sapiens, UniProt Q13724)
# T1 construct: 6-His (C); made in house; host or cells: HEK-293T cells transduced with BacMam virus (virus raised in Sf9)
# T1 sequence (Q13724 1-837): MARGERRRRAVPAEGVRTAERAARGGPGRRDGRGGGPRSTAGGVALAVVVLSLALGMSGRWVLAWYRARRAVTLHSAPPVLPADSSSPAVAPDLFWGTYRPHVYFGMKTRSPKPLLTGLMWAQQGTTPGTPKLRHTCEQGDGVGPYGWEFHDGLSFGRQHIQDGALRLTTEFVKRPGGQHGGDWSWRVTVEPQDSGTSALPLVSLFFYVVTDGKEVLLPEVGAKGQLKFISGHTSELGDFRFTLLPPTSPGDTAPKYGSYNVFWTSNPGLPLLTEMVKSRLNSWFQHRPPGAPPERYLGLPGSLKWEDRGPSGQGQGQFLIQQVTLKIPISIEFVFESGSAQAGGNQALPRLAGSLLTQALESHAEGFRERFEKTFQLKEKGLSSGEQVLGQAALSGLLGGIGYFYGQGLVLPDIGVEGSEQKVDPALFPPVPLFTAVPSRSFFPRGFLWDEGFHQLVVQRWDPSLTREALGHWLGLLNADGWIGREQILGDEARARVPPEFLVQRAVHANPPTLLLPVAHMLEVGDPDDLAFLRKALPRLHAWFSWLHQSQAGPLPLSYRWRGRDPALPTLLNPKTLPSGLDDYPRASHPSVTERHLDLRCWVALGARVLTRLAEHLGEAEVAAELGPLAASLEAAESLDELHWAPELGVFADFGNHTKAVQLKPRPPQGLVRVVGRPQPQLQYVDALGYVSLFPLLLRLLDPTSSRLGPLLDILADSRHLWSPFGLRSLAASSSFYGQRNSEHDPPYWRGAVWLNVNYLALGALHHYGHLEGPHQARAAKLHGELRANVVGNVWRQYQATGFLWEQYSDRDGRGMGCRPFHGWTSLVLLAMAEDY
# Test: Alpha-glucosidase I assay (Amplex Red glucose detection, synthetic trisaccharide substrate)
# Assay type: biochemical
# Conditions: not given
# Description: Preparation of Human Full-length Glucosidase I: The amino acid sequence for human full-length glucosidase I was obtained from UniProt (Q13724). […] The entry vector was cloned into Kemp Proteins' BacMam Destination vector and transformed into chemically competent DH10Bac E. coli cells to produce recombinant glucosidase I bacmids. Bacmid isolates were obtained following two rounds of blue-white screening and they were transfected into Sf9 cells cultivated in serum-free medium (Thermo Fisher Scientific). Four days post-transfection the culture supernatants containing virus were harvested and filter sterilized. […] A multiplicity of infection (MOI, ratio of virus to cells) of 4 was selected. Soluble glucosidase I was detected by anti-His western blots in the soluble cell extract following extraction with 1% V/V NP40 for 30 minutes at 0° C. Productions and purifications of glucosidase I were carried out at scales ranging from 1-liter to 10-liters. […] In another example production at the 10-liter scale was performed in stirred-tank bioreactors at 27° C. and 80 rpm with dissolved oxygen level at 50% of oxygen in air and pH between 7.0 and 7.2. Cells were transduced at MOI of 4 and the cell pellet was harvested at 48 hours post-transduction using centrifugation.
# The pellet from a 10-liter culture was lysed by resuspending the pellet into 1-liter of 50 mM NaH2PO4—H2O+300 mM NaCl+10 mM Imidazole+1 mM PMSF+1% V/V NP40 pH 8. The suspension was incubated on ice for 30 minutes and clarified at 500×g and 4° C. The supernatant was collected and clarified at 20,000×g for 30 minutes at 4° C. and the supernatant was collected and filtered through a 0.2 micron filter. […] The column was washed with 20 column volumes (CV) of 50 mM NaH2PO4-H2O+300 mM NaCl+10 mM Imidazole pH 8 and eluted using a linear gradient of 0-60% 50 mM NaH2PO4-H2O+300 mM NaCl+500 mM Imidazole pH 8 over 90 minutes. at 5 mL per minute. Fractions (25 mL) were collected and analyzed by SDS PAGE and Western Blot (reducing anti-His). Fractions containing purified glucosidase I were pooled and dialyzed into storage buffer (20 mM Tris+300 mM NaCl+50 mM L-arginine+10 mM EDTA+0.01% V/V Tween 80 pH 7.5). The final material was filter sterilized and stored at 4° C. and the working dilution confirmed by a use-test in the indicated assay conditions prior to use.
# Alpha-glucosidase I Assay: The assay was performed by incubating recombinant alpha-glucosidase I enzyme with multiple dilutions of test compounds for 60 minutes at 37° C. A synthetic trisaccharide substrate analog was then introduced to the mixture for 90 minutes at 37° C. The reaction was then stopped with 1.5M Tris (pH 8). In the absence of inhibition, the terminal glucose of the substrate was hydrolyzed by the enzyme. The D-glucose product was detected using Amplex Red Glucose/Glucose Oxidase Assay Kit (Invitrogen) following the manufacturer's directions where glucose oxidase reacts with D-glucose to form D-gluconolactone and H2O2 which then reacts with the Amplex Red reagent to generate a red-fluorescent oxidation product (560 nm, excitation; 590 nm, emission). […] Percent inhibition is plotted as a function of concentration for each compound, compared to control reactions. The IC50 was determined using a 4-PL curve fit and serves as a measure of relative inhibitory activity of each test compound (see Table 3).
row,SMILES,IC50 [nM]
1,"O=[N+]([O-])c1cc(N2C3CCC2COC3)ccc1NCc1ccc(CN2CC(O)C(O)C(O)C2CO)cc1 (stereo in doubt) [Compound 1018, (2S,3S,4S,5R)-2-(hydroxymethyl)-1-({4-[({2-nitro-4-[(1R,5S)-3-oxa-8-azabicyclo[3.2.1]octan-8-yl]phenyl}amino)methyl]phenyl}methyl) piperidine-3,4,5-triol]",< 1
2,"OC[C@@H]1[C@@H](O)[C@H](O)[C@@H](O)CN1CCCCCCNc1cc(-c2cccnn2)cc(C2CC2)c1 [Compound 1008, (2R,3R,4R,5S)-1-(6-{[3-cyclopropyl-5-(pyridazin-3-yl)phenyl]amino}hexyl)-2-(hydroxymethyl)piperidine-3,4,5-triol]",103
3,C[C@@H]1CN(c2ccc(NCc3ccc(CN4C[C@H](O)[C@@H](O)[C@H](O)[C@H]4CO)cc3)c([N+](=O)[O-])c2)C[C@H](C)O1 [Compound 1014],1
4,"CS(=O)(=O)c1cc(Br)cc(NCc2cccc(CN3C[C@H](O)[C@@H](O)[C@H](O)[C@H]3CO)c2)c1 [Compound 1022, (2R,3R,4R,5S)-1-[(3-{[(3-bromo-5-methanesulfonylphenyl)amino]methyl}phenyl)methyl]-2-(hydroxymethyl)piperidine-3,4,5-triol]",19
5,"Cc1cc(NCc2cccc(CN3C[C@H](O)[C@@H](O)[C@H](O)[C@H]3CO)c2)cc(-c2ncccn2)c1 [Compound 1035, (2R,3R,4R,5S)-2-(hydroxymethyl)-1-{[3-({[3-methyl-5-(pyrimidin-2-yl)phenyl]amino}methyl)phenyl]methyl}piperidine-3,4,5-triol]",44
6,"CS(=O)(=O)c1cc(NCc2cccc(CN3C[C@H](O)[C@@H](O)[C@H](O)[C@H]3CO)c2)cc(-c2cccnn2)c1 [Compound 1040, (2R,3R,4R,5S)-2-(hydroxymethyl)-1-{[3-({[3-methanesulfonyl-5-(pyridazin-3-yl)phenyl]amino}methyl)phenyl]methyl}piperidine-3,4,5-triol]",17
7,"CS(=O)(=O)c1cc(NCc2cccc(CN3C[C@H](O)[C@@H](O)[C@H](O)[C@H]3CO)c2)cc(-c2ncccn2)c1 [Compound 1041, (2R,3R,4R,5S)-2-(hydroxymethyl)-1-{[3-({[3-methanesulfonyl-5-(pyrimidin-2-yl)phenyl]amino}methyl)phenyl]methyl}piperidine-3,4,5-triol]",17
8,"N#Cc1cc(NCc2cccc(CN3C[C@H](O)[C@@H](O)[C@H](O)[C@H]3CO)c2)cc(C2=COCCO2)c1 [Compound 1044, 3-(5,6-dihydro-1,4-dioxin-2-yl)-5-{[(3-{[(2R,3R,4R,5S)-3,4,5-trihydroxy-2-(hydroxymethyl)piperidin-1-yl]methyl}phenyl)methyl]amino}benzonitrile]",3
9,"Cc1cc(NCc2ccc(CN3C[C@H](O)[C@@H](O)[C@H](O)[C@H]3CO)cc2)cc(-c2cccnn2)c1 [Compound 1052, (2R,3R,4R,5S)-2-(hydroxymethyl)-1-{[4-({[3-methyl-5-(pyridazin-3-yl)phenyl]amino}methyl)phenyl]methyl}piperidine-3,4,5-trio]",73
10,"CS(=O)(=O)c1cc(NCc2ccc(CN3C[C@H](O)[C@@H](O)[C@H](O)[C@H]3CO)cc2)cc(-c2cccnn2)c1 [Compound 1058, (2R,3R,4R,5S)-2-(hydroxymethyl)-1-{[4-({[3-methanesulfonyl-5-(pyridazin-3-yl)phenyl]amino}methyl)phenyl]methyl}piperidine-3,4,5-triol]",21
11,"O=[N+]([O-])c1cc(N2CCOCC2)ccc1NCc1cccc(CN2C[C@H](O)[C@@H](O)[C@H](O)[C@H]2CO)c1 [Compound 1067, (2R,3R,4R,5S)-2-(hydroxymethyl)-1-{[3-({[4-(morpholin-4-yl)-2-nitrophenyl]amino}methyl)phenyl]methyl}piperidine-3,4,5-triol]",99
12,OC[C@@H]1[C@@H](O)[C@H](O)[C@@H](O)CN1Cc1ccc(CNc2ccc(N3CCOCC3)cc2)cc1 [Compound 1068],122
13,"OC[C@@H]1[C@@H](O)[C@H](O)[C@@H](O)CN1CCc1ccc(CCNc2cc(Cl)cc(-c3ncon3)c2)cc1 [Compound 1113, (2R,3R,4R,5S)-1-{2-[4-(2-{[3-chloro-5-(1,2,4-oxadiazol-3-yl)phenyl]amino}ethyl)phenyl]ethyl}-2-(hydroxymethyl)piperidine-3,4,5-triol]",1010

# Same assay, conditions: Glucosidase 1; read-out: Glu 1 IC50
row,SMILES,IC50 [nM]
1,"[N-]=[N+]=Nc1ccc(NCCc2ccc(CCN3C[C@@H](O)[C@H](O)[C@@H](O)[C@@H]3CO)c3ccccc23)c([N+](=O)[O-])c1 (stereo in doubt) [Compound 1178, (2S,3S,4S,5R)-1-[2-(4-{2-[(4-azido-2-nitrophenyl)amino]ethyl}naphthalen-1-yl)ethyl]-2-(hydroxymethyl)piperidine-3,4,5-triol]",2730
2,"OC[C@@H]1[C@@H](O)[C@H](O)[C@@H](O)CN1CCCCCCNc1cc(-c2ncccn2)cc(C2CC2)c1 [Compound 1009, (2R,3R,4R,5S)-1-(6-{[3-cyclopropyl-5-(pyrimidin-2-yl)phenyl]amino}hexyl)-2-(hydroxymethyl)piperidine-3,4,5-triol]",163
3,"OC[C@@H]1[C@@H](O)[C@H](O)[C@@H](O)CN1Cc1ccc(CNc2cc(C3CC3)cc(N3CCOCC3)c2)cc1 [Compound 1010, (2R,3R,4R,5S)-1-{[4-({[3-cyclopropyl-5-(morpholin-4-yl)phenyl]amino}methyl)phenyl]methyl}-2-(hydroxymethyl)piperidine-3,4,5-triol]",199
4,"OC[C@@H]1[C@@H](O)[C@H](O)[C@@H](O)CN1Cc1ccc(CNc2cc(-c3cccnn3)cc(C3CC3)c2)cc1 [Compound 1012, (2R,3R,4R,5S)-1-{[4-({[3-cyclopropyl-5-(pyridazin-3-yl)phenyl]amino}methyl)phenyl]methyl}-2-(hydroxymethyl)piperidine-3,4,5-triol]",18
5,"OC[C@@H]1[C@@H](O)[C@H](O)[C@@H](O)CN1Cc1ccc(CNc2cc(-c3ncccn3)cc(C3CC3)c2)cc1 [Compound 1013, (2R,3R,4R,5S)-1-{[4-({[3-cyclopropyl-5-(pyrimidin-2-yl)phenyl]amino}methyl)phenyl]methyl}-2-(hydroxymethyl)piperidine-3,4,5-triol]",53
6,"CCCc1nc(-c2cc(Cl)cc(NCCc3ccc(CCN4C[C@H](O)[C@@H](O)[C@H](O)[C@H]4CO)cc3)c2)no1 [Compound 1123, (2R,3R,4R,5S)-1-{2-[4-(2-{[3-chloro-5-(5-propyl-1,2,4-oxadiazol-3-yl)phenyl]amino}ethyl)phenyl]ethyl}-2-(hydroxymethyl)piperidine-3,4,5-triol]",1360
